Results taken from patent US10399989B2, “Pyrazolopyrimidine derivatives as BTK inhibitors for the treatment of cancer” (Loxo Oncology, Inc., priority 2016, dated 2019).
Read-outs that look alike come from different tables or passages of the source.

Tests used:
[1] = test system: OCI-Ly10 human DLBCL cells; assay: OCI-Ly10 anti-proliferative activity (Resazurin, 72 h); format: cell-based; settings: Homo sapiens, OCI-Ly10, 72 h, read-out: Proliferation OCI-Ly10-IC50
Method in brief: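 Resazurin fluorescence (590 nm, 5 h dye incubation) read after 72 h compound exposure at 37 °C; NFκB-dependent cells seeded at 7.5×10^3/well in 2.5% FBS medium. Day 0 signal subtracted, values normalised to DMSO control; IC50 from log[inhibitor] vs response, variable-slope fit.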

[2] = target: EGFR (Homo sapiens (Human), UniProt P00533); assay: EGFR binding affinity (TR-FRET, LanthaScreen); settings: 5 h incubation
Chain of EGFR (P00533 25-1210): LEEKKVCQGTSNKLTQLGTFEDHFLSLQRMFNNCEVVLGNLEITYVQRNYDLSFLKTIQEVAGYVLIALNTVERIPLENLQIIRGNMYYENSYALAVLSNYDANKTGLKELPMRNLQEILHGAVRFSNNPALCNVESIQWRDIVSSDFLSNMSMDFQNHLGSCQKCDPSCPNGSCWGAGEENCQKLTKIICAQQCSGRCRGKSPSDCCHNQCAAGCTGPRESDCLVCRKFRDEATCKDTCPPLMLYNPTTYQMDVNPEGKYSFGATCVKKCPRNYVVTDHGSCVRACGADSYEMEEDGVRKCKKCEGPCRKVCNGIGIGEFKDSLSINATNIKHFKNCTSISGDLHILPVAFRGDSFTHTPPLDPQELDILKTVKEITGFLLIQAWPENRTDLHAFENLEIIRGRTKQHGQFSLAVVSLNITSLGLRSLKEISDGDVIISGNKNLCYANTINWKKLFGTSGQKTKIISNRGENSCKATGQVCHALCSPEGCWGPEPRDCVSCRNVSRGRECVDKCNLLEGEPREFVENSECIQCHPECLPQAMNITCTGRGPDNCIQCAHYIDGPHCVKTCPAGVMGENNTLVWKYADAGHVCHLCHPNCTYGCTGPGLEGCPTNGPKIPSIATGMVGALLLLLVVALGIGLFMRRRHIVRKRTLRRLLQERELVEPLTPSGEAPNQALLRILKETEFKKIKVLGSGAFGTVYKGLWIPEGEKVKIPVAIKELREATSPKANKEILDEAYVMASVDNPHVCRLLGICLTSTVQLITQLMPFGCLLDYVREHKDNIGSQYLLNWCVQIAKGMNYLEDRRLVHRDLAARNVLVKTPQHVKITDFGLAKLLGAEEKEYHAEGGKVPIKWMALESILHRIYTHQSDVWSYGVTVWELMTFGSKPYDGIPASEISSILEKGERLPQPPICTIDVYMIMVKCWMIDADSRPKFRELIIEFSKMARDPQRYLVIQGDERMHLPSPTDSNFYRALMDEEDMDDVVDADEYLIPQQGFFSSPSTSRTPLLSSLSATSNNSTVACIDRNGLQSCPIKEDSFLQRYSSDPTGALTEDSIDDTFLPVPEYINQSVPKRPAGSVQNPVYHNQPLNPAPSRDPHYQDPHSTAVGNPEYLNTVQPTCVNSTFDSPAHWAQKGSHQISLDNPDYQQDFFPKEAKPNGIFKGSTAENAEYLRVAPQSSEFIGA
Method in brief: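 IC50 derived by variable-slope fit of TR-FRET signal (ex 340, em 615 and 665 nm) against inhibitor concentration. Mix contained recombinant GST-detected EGFR at 2.5 nM, Eu anti-GST antibody at 2 nM and Kinase Tracer 199 at 3 nM in Kinase Buffer A, 5 h incubation.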

[3] = target: BTK^C481S (Homo sapiens (Human), UniProt Q06187, C481S); assay: BTK^C481S binding affinity (TR-FRET, LanthaScreen); settings: 5 h incubation
Chain of BTK^C481S (Q06187 whole entry C481S): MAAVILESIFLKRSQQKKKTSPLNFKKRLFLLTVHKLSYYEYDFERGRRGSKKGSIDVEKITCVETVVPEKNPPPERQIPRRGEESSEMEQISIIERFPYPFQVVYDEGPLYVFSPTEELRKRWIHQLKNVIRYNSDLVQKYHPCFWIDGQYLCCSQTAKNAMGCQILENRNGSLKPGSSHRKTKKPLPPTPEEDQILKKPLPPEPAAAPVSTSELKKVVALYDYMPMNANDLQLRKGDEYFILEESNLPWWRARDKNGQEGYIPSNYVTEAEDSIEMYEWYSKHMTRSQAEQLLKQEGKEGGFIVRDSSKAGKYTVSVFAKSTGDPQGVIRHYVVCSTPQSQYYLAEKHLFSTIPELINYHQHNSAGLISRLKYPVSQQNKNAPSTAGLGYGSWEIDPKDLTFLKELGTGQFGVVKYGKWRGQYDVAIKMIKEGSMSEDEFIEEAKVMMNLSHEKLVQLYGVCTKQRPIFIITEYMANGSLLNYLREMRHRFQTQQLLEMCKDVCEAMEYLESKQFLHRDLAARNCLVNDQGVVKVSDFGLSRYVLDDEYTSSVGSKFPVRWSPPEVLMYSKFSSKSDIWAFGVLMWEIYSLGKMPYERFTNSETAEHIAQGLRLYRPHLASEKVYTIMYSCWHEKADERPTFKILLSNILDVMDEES
Method in brief: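 Tracer-displacement TR-FRET: 5 nM recombinant kinase, 2 nM Eu anti-His antibody and 30 nM Kinase Tracer 236 incubated 5 h with varying inhibitor in Kinase Buffer A. Read at 340 nm excitation, 615/665 nm emission. IC50 from log[inhibitor]–response variable-slope fit.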

[4] = target: BTK^WT (Homo sapiens (Human), UniProt Q06187); assay: BTK^WT binding affinity (TR-FRET, LanthaScreen)
Chain of BTK^WT (Q06187 whole entry): as the sequence (Q06187 whole entry C481S) above, with S481C counted along it
Method in brief: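 Tracer-displacement TR-FRET: 2.5 nM recombinant BTK, 2 nM Eu anti-His antibody and 15 nM Kinase Tracer 236 in Kinase Buffer A with inhibitor for 5 h. Emission read at 615/665 nm (excitation 340 nm); IC50 from variable-slope fit of log concentration vs response.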

[5] = TR-FRET binding, 5 h incubation, read-out: BTK^WT IC50

Structure (SMILES) | IC50 [1] [µM] | IC50 [2] [µM] | IC50 [3] [µM] | IC50 [4, 5] [µM] | IC50 ([4]; Table 6, numeric values, read-out: BTK Binding IC50) [µM]
COCCO[C@H]1C=C[C@H](n2nc(-c3ccc(CNC(=O)c4ccccc4OC)cc3)c3c(N)ncnc32)C1 [Example 57, N-[[4-[4-amino-1-[(1R,4R)-4-(2-methoxyethoxy)cyclopent-2-en-1-yl]pyrazolo[3,4-d]pyrimidin-3-yl]phenyl]methyl]-2-methoxy-benzamide] | 0.1 to 1 | 1 to 10 | 1 to 10 | 0.1 to 1 | –
COCCNc1ncnc2c1c(-c1ccc(CNC(=O)c3ccccc3OC)cc1)nn2[C@H]1C=C[C@H](O)C1 [Example 58, N-[[4-[1-[(1R,4R)-4-hydroxycyclopent-2-en-1-yl]-4-(2-methoxyethylamino)pyrazolo[3,4-d]pyrimidin-3-yl]phenyl]methyl]-2-methoxy-benzamide] | 0.1 to 1 | 1 to 10 | ≤ 0.01 | ≤ 0.01 | –
COc1ccccc1C(=O)NCc1ccc(-c2nn([C@H]3C=C[C@H](N)C3)c3ncnc(N)c23)cc1 [Example 59, N-[(4-{4-amino-1-[(1R,4R)-4-aminocyclopent-2-en-1-yl]-1H-pyrazolo[3,4-d]pyrimidin-3-yl}phenyl)methyl]-2-methoxybenzamide] | 0.1 to 1 | 1 to 10 | 0.01 to 0.1 | 0.01 to 0.1 | –
COc1ccccc1C(=O)NCc1ccc(-c2nn([C@H]3C=C[C@H](NC(C)=O)C3)c3ncnc(N)c23)cc1 [Example 60, N-[[4-[1-[(1R,4R)-4-acetamidocyclopent-2-en-1-yl]-4-amino-pyrazolo[3,4-d]pyrimidin-3-yl]phenyl]methyl]-2-methoxy-benzamide] | 0.1 to 1 | 1 to 10 | ≤ 0.01 | ≤ 0.01 | –

Other lines, results leading:

IC50 [1] [µM] | IC50 [2] [µM] | IC50 [3] [µM] | IC50 [4, 5] [µM] | IC50 ([4]; Table 6, numeric values, read-out: BTK Binding IC50) [µM] | Structure (SMILES)
0.1 to 1 | 1 to 10 | ≤ 0.01 | ≤ 0.01 | – | COc1ccccc1C(=O)NCc1ccc(-c2nn([C@H]3C=C[C@H](n4ccnn4)C3)c3ncnc(N)c23)cc1 [Example 61, N-[[4-[4-amino-1-[(1R,4R)-4-(triazol-1-yl)cyclopent-2-en-1-yl]pyrazolo[3,4-d]pyrimidin-3-yl]phenyl]methyl]-2-methoxy-benzamide]
0.01 to 0.1 | 0.1 to 1 | ≤ 0.01 | ≤ 0.01 | – | COc1ccccc1C(=O)NCc1ccc(-c2nn(C3CCC(C)C3)c3ncnc(N)c23)cc1 (centres unmarked) [Example 62, N-[[4-[4-amino-1-(3-methylcyclopentyl)pyrazolo[3,4-d]pyrimidin-3-yl]phenyl]methyl]-2-methoxy-benzamide]
0.01 to 0.1 | 1 to 10 | ≤ 0.01 | ≤ 0.01 | – | COc1ccc(F)cc1C(=O)NCc1ccc(-c2nn(C3CCCC3)c3ncnc(N)c23)cc1F [Example 63, N-[[4-(4-Amino-1-cyclopentyl-pyrazolo[3,4-d]pyrimidin-3-yl)-2-fluoro-phenyl]methyl]-5-fluoro-2-methoxy-benzamide]
0.1 to 1 | 1 to 10 | ≤ 0.01 | ≤ 0.01 | – | COc1ccc(C)cc1C(=O)NCc1ccc(-c2nn(C3CCCC3)c3ncnc(N)c23)cc1F [Example 65, N-[[4-(4-amino-1-cyclopentyl-pyrazolo[3,4-d]pyrimidin-3-yl)-2-fluoro-phenyl]methyl]-2-methoxy-5-methyl-benzamide]
0.01 to 0.1 | 0.1 to 1 | ≤ 0.01 | ≤ 0.01 | 0.004 | COc1ccccc1C(=O)NCc1ccc(-c2nn(C3CCCC3)c3ncnc(N)c23)cc1F [Example 66, N-[[4-(4-amino-1-cyclopentyl-pyrazolo[3,4-d]pyrimidin-3-yl)-2-fluoro-phenyl]methyl]-2-methoxy-benzamide]
1 to 10 | 1 to 10 | 0.1 to 1 | 0.1 to 1 | – | COc1ccc2ccccc2c1C(=O)NCc1ccc(-c2nn(C3CCCC3)c3ncnc(N)c23)cc1 [Example 68, N-[[4-(4-amino-1-cyclopentyl-pyrazolo[3,4-d]pyrimidin-3-yl)phenyl]methyl]-2-methoxy-naphthalene-1-carboxamide]
